pIC50: −log10 of the molar value. Values joined by “and” are separate entries in the source; they are usually repeats but may differ in a detail not shown here. Equal values may be shown once.
Tests used:
Settings in all cases: average where tested multiple times
BCAT2 [1] = target: T1, BCAT2 (Homo sapiens, UniProt O15382); test: BCAT2 in vitro enzyme inhibition assay (resazurin/diaphorase-coupled fluorescence); type: biochemical
T1 sequence (O15382 28-392): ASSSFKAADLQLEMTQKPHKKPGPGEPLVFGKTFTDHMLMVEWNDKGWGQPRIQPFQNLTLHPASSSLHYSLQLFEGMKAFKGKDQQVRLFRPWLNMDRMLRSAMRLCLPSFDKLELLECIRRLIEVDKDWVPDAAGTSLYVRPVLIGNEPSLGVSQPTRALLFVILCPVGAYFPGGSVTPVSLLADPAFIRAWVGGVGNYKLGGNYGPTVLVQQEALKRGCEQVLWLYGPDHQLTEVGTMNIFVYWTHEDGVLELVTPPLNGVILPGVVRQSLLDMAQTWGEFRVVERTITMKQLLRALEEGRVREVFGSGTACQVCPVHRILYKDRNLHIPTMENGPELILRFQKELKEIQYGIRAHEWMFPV
In short: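 Coupled fluorescence readout: glutamate formed from L-leucine/α-ketoglutarate transamination drives GDH/NAD/diaphorase reduction of resazurin (Ex 540/Em 590). Human BCAT2 was first exposed 1 h at room temperature to compound, top final 100 μM in 3-fold, 10-point series; substrate reaction ran 1 h before SDS quench, in technical duplicate with DMSO max and enzyme-free min controls.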

hBCAT1 = target: T2, hBCAT1 (Homo sapiens, UniProt P54687); test: BCAT1 in vitro enzyme inhibition assay (resazurin/diaphorase-coupled fluorescence); type: biochemical
T2 sequence (P54687 1-386): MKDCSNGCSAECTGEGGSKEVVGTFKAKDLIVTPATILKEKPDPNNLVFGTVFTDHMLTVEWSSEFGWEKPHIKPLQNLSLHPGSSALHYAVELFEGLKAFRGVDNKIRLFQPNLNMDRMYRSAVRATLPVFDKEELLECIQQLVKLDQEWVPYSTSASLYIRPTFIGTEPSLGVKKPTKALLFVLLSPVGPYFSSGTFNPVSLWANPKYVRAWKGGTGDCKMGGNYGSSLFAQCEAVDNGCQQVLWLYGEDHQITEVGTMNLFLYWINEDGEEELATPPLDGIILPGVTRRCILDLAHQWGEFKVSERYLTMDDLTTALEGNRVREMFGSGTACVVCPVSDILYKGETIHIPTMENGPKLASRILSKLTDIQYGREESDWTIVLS
In short: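 Ten-point, 3-fold compound series (top final 100 μM, delivered 1:50 from 50× DMSO stocks) tested against hBCAT1. Inhibition detected via diaphorase-coupled resazurin fluorescence, duplicate wells, with values from repeated runs averaged.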

BCAT2 [2] = target: T1, BCAT2; test: BCAT2 in vitro cell inhibition using engineered A549 cells (KMV cell assay, 13C6-KMV by LC-MS/MS); type: cell-based; parameters: The result was an engineered A549 cell line that expressed endogenous BCAT2; endogenous in cells; host or cells: A549 cells with MUT and BCAT1 knocked out by CRISPR/CAS9; key to BCAT2 Cell Inhibition: A: less than or equal to 0.100 μM; B: greater than 0.100 and less than or equal to 0.500 μM; C: greater than 0.500 and less than or equal to 1.000 μM; d: greater than 1.000 μM; E: no fit

Question: How did the pIC50 (BCAT2 [1]) turn out when `CC(C)Cc1nc2cnc(-c3ccccn3)cc2n1[C@H]1C[C@@H](NC(=O)c2ncc(Cl)s2)CN(C)C1` [Example 262, 5-chloro-N-((3R,5S)-5-(2-isobutyl-6-(pyridin-2-yl)-1H-imidazo[4,5-c]pyridin-1-yl)-1-methylpiperidin-3-yl)thiazole-2-carboxamide] was run?
Answer: 6.30 to 7.00

Question: And the pIC50 (hBCAT1)?
Answer: < 5.30

Question: And the pIC50 (BCAT2 [2])?
Answer: < 6.00

Question: With `CN1C[C@H](NC(=O)c2ccc(Cl)s2)C[C@H](n2c(-c3ccccc3F)nc3cnc(-c4nc[nH]n4)cc32)C1` [Example 264, 5-chloro-N-((3R,5S)-5-(2-(2-fluorophenyl)-6-(1H-1,2,4-triazol-3-yl)-1H-imidazo[4,5-c]pyridin-1-yl)-1-methylpiperidin-3-yl)thiophene-2-carboxamide] as the molecule, how does the pIC50 (BCAT2 [1]) read?
Answer: ≥ 7.00

Question: And the pIC50 (hBCAT1)?
Answer: > 6.30

Question: What about the pIC50 (BCAT2 [2]) of the same molecule?
Answer: ≥ 7.00

Question: With `O=C(N[C@H]1CCC[C@@H](n2c(-c3ccccc3F)nc3cnc(O[C@H]4CCOC4)cc32)C1)c1ncc(Cl)s1` [Example 267, 5-chloro-N-((1S,3R)-3-(2-(2-fluorophenyl)-6-(((S)-tetrahydrofuran-3-yl)oxy)-1H-imidazo[4,5-c]pyridin-1-yl)cyclohexyl)thiazole-2-carboxamide] as the molecule, how does the pIC50 (BCAT2 [1]) read?
Answer: 6.30 to 7.00

Question: And the pIC50 (hBCAT1)?
Answer: > 6.30

Question: What about the pIC50 (BCAT2 [2]) of the same molecule?
Answer: 6.30 to 7.00

Question: With `Nc1cc2c(cn1)nc(-c1ccccc1F)n2[C@@H]1C[C@@H](O)C[C@H](NC(=O)c2ncc(Cl)s2)C1` [Example 270, N-((1R,3S,5S)-3-(6-amino-2-(2-fluorophenyl)-1H-imidazo[4,5-c]pyridin-1-yl)-5-hydroxycyclohexyl)-5-chlorothiazole-2-carboxamide] as the molecule, how does the pIC50 (BCAT2 [1]) read?
Answer: ≥ 7.00

Question: What about the pIC50 (hBCAT1) of the same molecule?
Answer: > 6.30

Question: What about the pIC50 (BCAT2 [2]) of the same molecule?
Answer: < 6.00

Question: What does the source list for `O=C(N[C@H]1C[C@H](O)C[C@@H](n2c(-c3ccccc3F)nc3cnccc32)C1)c1ncc(Cl)s1` [Example 272, 5-chloro-N-((1R,3S,5S)-3-(2-(2-fluorophenyl)-1H-imidazo[4,5-c]pyridin-1-yl)-5-hydroxycyclohexyl)thiazole-2-carboxamide]?
Answer: pIC50 (BCAT2 [1]): ≥ 7.00; pIC50 (hBCAT1): 6.00 to 6.30; pIC50 (BCAT2 [2]): 6.00 to 6.30

Question: `CNc1cc2c(cn1)nc(-c1ccccc1F)n2[C@@H]1C[C@@H](O)C[C@H](NC(=O)c2ncc(Cl)s2)C1` [Example 274, 5-chloro-N-((1R,3S,5S)-3-(2-(2-fluorophenyl)-6-(methylamino)-1H-imidazo[4,5-c]pyridin-1-yl)-5-hydroxycyclohexyl)thiazole-2-carboxamide] was tested. Which pIC50 (BCAT2 [1]) did it give?
Answer: ≥ 7.00

Question: What about the pIC50 (hBCAT1) of the same molecule?
Answer: > 6.30

Question: What about the pIC50 (BCAT2 [2]) of the same molecule?
Answer: 6.00 to 6.30

Question: What does the source list for `O=C(N[C@H]1C[C@H](O)C[C@@H](n2c(-c3ccccc3F)nc3cnc(F)cc32)C1)c1ncc(Cl)s1` [Example 276, 5-chloro-N-((1R,3S,5S)-3-(6-fluoro-2-(2-fluorophenyl)-1H-imidazo[4,5-c]pyridin-1-yl)-5-hydroxycyclohexyl)thiazole-2-carboxamide]?
Answer: pIC50 (BCAT2 [1]): ≥ 7.00; pIC50 (hBCAT1): > 6.30; pIC50 (BCAT2 [2]): ≥ 7.00

Question: Which results are given for `COc1cc2c(cn1)nc(-c1ccccc1F)n2[C@@H]1C[C@@H](O)C[C@H](NC(=O)c2ncc(Cl)s2)C1` [Example 278, 5-chloro-N-((1R,3S,5S)-3-(2-(2-fluorophenyl)-6-methoxy-1H-imidazo[4,5-c]pyridin-1-yl)-5-hydroxycyclohexyl)thiazole-2-carboxamide]?
Answer: pIC50 (BCAT2 [1]): ≥ 7.00; pIC50 (hBCAT1): > 6.30; pIC50 (BCAT2 [2]): 6.30 to 7.00

Question: `CNC(=O)c1cc2nc(-c3ccccc3F)n(C3CCCC(NC(=O)c4ncc(Cl)s4)C3O)c2cn1` (stereo not drawn) [Example 281, 5-chloro-N-(3-(2-(2-fluorophenyl)-6-(methylcarbamoyl)-3H-imidazo[4,5-c]pyridin-3-yl)-2-hydroxycyclohexyl)thiazole-2-carboxamide] was tested. Which pIC50 (BCAT2 [1]) did it give?
Answer: ≥ 7.00

Question: What about the pIC50 (hBCAT1) of the same molecule?
Answer: > 6.30

Question: What about the pIC50 (BCAT2 [2]) of the same molecule?
Answer: ≥ 7.00

Question: With `CC(=O)N1CC(NC(=O)c2ccc(Br)s2)CC(n2c(-c3ncccc3F)nc3cc(-c4nnco4)ccc32)C1` (stereo not drawn) [Example 283, N-(1-acetyl-5-(2-(3-fluoropyridin-2-yl)-5-(1,3,4-oxadiazol-2-yl)-1H-benzo[d]imidazol-1-yl)piperidin-3-yl)-5-bromothiophene-2-carboxamide] as the molecule, how does the pIC50 (BCAT2 [1]) read?
Answer: ≥ 7.00

Question: And the pIC50 (hBCAT1)?
Answer: < 5.30 and 5.30 to 6.00

Question: What about the pIC50 (BCAT2 [2]) of the same molecule?
Answer: < 6.00

Question: With `CC(=O)N1CC(NC(=O)c2ccc(Br)s2)CC(n2c(-c3ccccn3)nc3ccc(-c4ncon4)cc32)C1` (stereo not drawn) [Example 286, N-(5-(6-(1,2,4-oxadiazol-3-yl)-2-(pyridin-2-yl)-1H-benzo[d]imidazol-1-yl)-1-acetylpiperidin-3-yl)-5-bromothiophene-2-carboxamide] as the molecule, how does the pIC50 (BCAT2 [1]) read?
Answer: ≥ 7.00

Question: What about the pIC50 (hBCAT1) of the same molecule?
Answer: 5.30 to 6.00

Question: What about the pIC50 (BCAT2 [2]) of the same molecule?
Answer: 6.30 to 7.00

Question: Which results are given for `CNC(=O)c1ccc2c(c1)nc(-c1ccccn1)n2C1CC(NC(=O)c2ccc(Br)s2)CN(C(C)=O)C1` (stereo not drawn) [Example 287, 1-(1-acetyl-5-(5-bromothiophene-2-carboxamido)piperidin-3-yl)-N-methyl-2-(pyridin-2-yl)-1H-benzo[d]imidazole-5-carboxamide]?
Answer: pIC50 (BCAT2 [1]): 6.30 to 7.00; pIC50 (hBCAT1): < 5.30; BCAT2 Cell Inhibition (BCAT2 [2]): E

Question: `CNC(=O)c1ccc2c(c1)nc(-c1ccccn1)n2C1CC(NC(=O)c2ccc(Br)s2)CN(C)C1` (stereo not drawn) [Example 288, 1-(5-(5-bromothiophene-2-carboxamido)-1-methylpiperidin-3-yl)-N-methyl-2-(pyridin-2-yl)-1H-benzo[d]imidazole-5-carboxamide] was tested. Which pIC50 (BCAT2 [1]) did it give?
Answer: 6.00 to 6.30

Question: What about the pIC50 (hBCAT1) of the same molecule?
Answer: < 5.30

Question: And the “BCAT2 Cell Inhibition” value (BCAT2 [2])?
Answer: E

Question: With `CNC(=O)c1cc2nc(-c3ccccc3F)n(C3CC(NC(=O)c4ccc(Br)s4)CN(C)C3)c2cc1OC` (stereo not drawn) [Example 291, 1-(5-(5-bromothiophene-2-carboxamido)-1-methylpiperidin-3-yl)-2-(2-fluorophenyl)-6-methoxy-N-methyl-1H-benzo[d]imidazole-5-carboxamide] as the molecule, how does the pIC50 (BCAT2 [1]) read?
Answer: ≥ 7.00

Question: And the pIC50 (hBCAT1)?
Answer: 5.30 to 6.00

Question: And the pIC50 (BCAT2 [2])?
Answer: 6.30 to 7.00

Question: `CC(C)(F)Cc1nc2cnc(-c3ccccn3)cc2n1[C@@H]1CCC[C@H](NC(=O)c2ncc(Cl)s2)C1` [Example 302, 5-chloro-N-((1S,3R)-3-(2-(2-fluoro-2-methylpropyl)-6-(pyridin-2-yl)-1H-imidazo[4,5-c]pyridin-1-yl)cyclohexyl)thiazole-2-carboxamide] was tested. Which pIC50 (BCAT2 [1]) did it give?
Answer: ≥ 7.00

Question: And the pIC50 (hBCAT1)?
Answer: 6.00 to 6.30

Question: And the pIC50 (BCAT2 [2])?
Answer: 6.30 to 7.00

Question: With `CC(C)Cc1nc2cnc(-c3ccccn3)cc2n1[C@@H]1CCC[C@H](NC(=O)c2ncc(Cl)s2)C1` [Example 303, 5-chloro-N-((1S,3R)-3-(2-isobutyl-6-(pyridin-2-yl)-1H-imidazo[4,5-c]pyridin-1-yl)cyclohexyl)thiazole-2-carboxamide] as the molecule, how does the pIC50 (BCAT2 [1]) read?
Answer: ≥ 7.00

Question: And the pIC50 (hBCAT1)?
Answer: > 6.30

Question: And the pIC50 (BCAT2 [2])?
Answer: 6.30 to 7.00

Question: How did the pIC50 (BCAT2 [1]) turn out when `CC(C)[C@@H](O)c1nc2cnc(-c3ccccn3)cc2n1[C@@H]1CCC[C@H](NC(=O)c2ncc(Cl)s2)C1` [Example 305, 5-chloro-N-((1S,3R)-3-(2-((R)-1-hydroxy-2-methylpropyl)-6-(pyridin-2-yl)-1H-imidazo[4,5-c]pyridin-1-yl)cyclohexyl)thiazole-2-carboxamide] was run?
Answer: ≥ 7.00

Question: And the pIC50 (hBCAT1)?
Answer: > 6.30

Question: And the pIC50 (BCAT2 [2])?
Answer: 6.30 to 7.00

Question: `Cc1coc(-c2cc3c(cn2)nc(CC(C)C)n3[C@@H]2CCC[C@H](NC(=O)c3ncc(Cl)s3)C2)n1` [Example 306, 5-chloro-N-((1S,3R)-3-(2-isobutyl-6-(4-methyloxazol-2-yl)-1H-imidazo[4,5-c]pyridin-1-yl)cyclohexyl)thiazole-2-carboxamide] was tested. Which pIC50 (BCAT2 [1]) did it give?
Answer: ≥ 7.00

Question: And the pIC50 (hBCAT1)?
Answer: 6.00 to 6.30

Question: And the pIC50 (BCAT2 [2])?
Answer: 6.30 to 7.00
